According to publication PMC5384453, “A multi-functional PEGylated gold(III) compound: potent anti-cancer properties and self-assembly into nanostructures for drug co-delivery” (Chemical Science, 2016):

How the values were obtained:
[1] = Transmission electron microscopy of nanostructures; format: physicochemical; settings: self-assembled in PBS
From the text: (§1) On the other hand, the almost neutral zeta potentials of the nanostructures of 1 and 2 validated the presence of PEG pendant in the shell of the nanostructures. The identity of gold species in the core of the nanostructures was supported by the good contrast of the core in the TEM images (Fig. 1c and S3a ^†) and energy-dispersive X-ray (EDX) spectra (Fig. 1f).
The gold content in NC1 was confirmed by EDX (Fig. 1g).

[2] = Hydrolysis in aqueous buffer solutions by 1H NMR; format: physicochemical; settings: 24 h, 37 °C; pH 4 (1), pH 4 or 7.4 (2)
[3] = Dynamic light scattering of nanostructures in PBS; format: physicochemical
Procedure: as §1
The gold content in NC1 was confirmed by EDX (Fig. 1g). […]
fetal bovine serum, ʟ-glutamine (2 mM) and penicillin/streptomycin (100 U/mL). […]
Physical measurements and instrumentation. 1H NMR spectra were recorded with a Bruker AVANCE 400 (400 MHz) or DPX-300 (300 MHz) Fourier transform NMR spectrometer at ambient temperature with tetramethylsilane (Me4Si) as an internal reference. MALDI-TOF mass spectra were recorded on a ABI4800 MALDI
TOF/TOF™ Analyzer using α-cyano-4-hydroxycinnamic acid with sodium trifluoroacetate as the matrix. Positive ion electrospray (ESI) mass spectra and ultra-performance liquid chromatography coupled quadrupole-time-of-flight mass spectrometry (UPLC-QTOF-MS) were recorded on a Waters Micromass Q-Tof
Premier quadrupole time-of-flight tandem mass spectrometer. Inductively coupled plasma mass spectra (ICP-MS) were recorded on Agilent 7500a inductively coupled plasma mass spectrometer (Agilent Technologies, CA, U.S.A.). […]

HCT116 xenografts = assay: In vivo inhibition of tumor growth in nude mice bearing HCT116 xenograft; settings: for reduction of tumor volume / reduction of tumor weight: n = 8
From the text: The anti-tumor experiments using mice were approved by the animal ethics committees of Jinan University and The University of Hong Kong.
Significant pulmonary hemorrhage in the alveoli and a thickening of alveolar walls were found. Also, apoptotic hepatocytes and swollen renal epithelial cells were found, leading to subsequent shrinkage of kidney tubules. […] The lower systemic toxicity of 1 can be explained by the lower accumulation of 1 in the organs of mice treated at its effective dosage, as compared to that of 3 and Au1a (Fig. S23 ^†). […] This can be attributable to the nanostructures of 1, which may lead to in vivo tumor accumulation by the EPR effect.[55] […]
atmosphere of 5% CO2. […]
right fore of BALB/c nude mice. When the tumor volume reached 70 mm3 after […]
(§2) every 2 days for 24 days. The control group received equal volume of PBS only.
(§3) During the treatment period, the tumor volume and body weight of the nude mice were measured per two days. The tumor volume was calculated by the equation:
(§4) Volume (mm3) = l×w2/2, where l and w were the length and width of the tumor. At the end of the treatment, the nude mice were sacrificed and the tumor weight was […]
H&E staining and immunohistochemical (IHC) analysis of mice tissues. For histological and immunohistochemical analysis, the tissues were fixed with 3.7% formaldehyde, embedded with paraffin and sectioned. Subsequently, the tissues were stained with hematoxylin and eosin for histological observation under an optical microscope (magnification: 10×). The expression of p53, Ki67, VEGFR2 and TUNEL was determined by IHC methods as reported previously. S7
Hematological analysis of nude mice bearing HCT116 xenograft. The blood samples of mice without bearing HCT116 xenograft and xenograft-bearing mice treated with 1, 3 and PBS control were collected. The plasma was obtained by centrifuging the blood sample with speed at 3000 rpm. The plasma was then subjected to hematological analysis to determine biochemical indexes of alanine aminotransferase (ALT), asparatate aminotransferase (AST), globulin (GLB), blood urea nitrogen (BUN), uric acid (UA), creatinine (CREA), lactate dehydrogenase (LDH) and creatine kinase (CK) in blood of the mice. […]

[4] = Systemic toxicity in nude mice bearing HCT116 xenografts (body weight, H&E histopathology, blood biochemistry); format: in vivo; settings: HCT116 xenograft nude mice
Procedure: The anti-tumor experiments using mice were approved by the animal ethics committees of Jinan University and The University of Hong Kong. […]
as §2, §3, §4
H&E staining and immunohistochemical (IHC) analysis of mice tissues. For […]
formaldehyde, embedded with paraffin and sectioned. Subsequently, the tissues were stained with hematoxylin and eosin for histological observation under an optical microscope (magnification: 10×). The expression of p53, Ki67, VEGFR2 and TUNEL was determined by IHC methods as reported previously. S7
Hematological analysis of nude mice bearing HCT116 xenograft. The blood samples of mice without bearing HCT116 xenograft and xenograft-bearing mice treated with 1, 3 and PBS control were collected. The plasma was obtained by centrifuging the blood sample with speed at 3000 rpm. The plasma was then subjected to hematological analysis to determine biochemical indexes of alanine aminotransferase (ALT), asparatate aminotransferase (AST), globulin (GLB), blood urea nitrogen (BUN), uric acid (UA), creatinine (CREA), lactate dehydrogenase (LDH) and creatine kinase (CK) in blood of the mice.
A2780cis xenograft nude mice model was constructed by injecting 2.5×10^6 cells to the right back flank of female BALB/c nude mice. When the tumor volume […]
animal study. The A2780cis xenograft nude mice were randomly divided into 2 groups (n = 5 per group). 1 in PBS (4 mg/kg) or PBS solvent control were injected to the nude mice by intravenous injection once every 2–3 days for 13 days. During the treatment period, the tumor volume and body weight of the nude mice were measured

[5] = 2 mg kg^–1, intravenous injection every two days for 24 days
[6] = 4 mg kg^–1, intravenous injection every two days for 24 days

Compound | diameter of nanostructures (TEM) [1] | change in 1H NMR spectra after incubation in buffer [2] | Intensity-averaged signals from dynamic light scattering (hydrodynamic diameter) [3] | reduction of tumor volume (HCT116 xenografts; [5]) | reduction of tumor weight (HCT116 xenografts; [5]) | reduction of tumor volume (HCT116 xenografts; [6]) | reduction of tumor weight (HCT116 xenografts; [6]) | nuclear atypia and mitosis in tumor sections (immunohistochemical analysis) (HCT116 xenografts; 4 mg kg^–1 i.v., 24 days) | mouse death / body weight ([4]; 2 or 4 mg kg^–1 i.v., 24 days) | blood biochemistry (organ damage indicators) ([4]; 4 mg kg^–1 i.v., 24 days, ALT, GLB, BUN, CK for 1) | histopathological analysis of tissues (H&E) ([4]; i.v., 24 days (3: 4 mg kg^–1))
[Au(TPP–COO–PEG5000–OCH3)]Cl [Compound 1] | ca. 120 nm | disappearance of peaks from protons of –COOCH 2CH 2– | 120.8 ± 7.2 nm | 41% | 35% | 58% | 53% | Effective elimination of nuclear atypia and mitosis were observed | no mouse death or significant loss in body weight | – | –
[Au(TPP–CONH–PEG5000–OCH3)]Cl [Compound 2] | ~200 nm | no observable change in the NMR spectra | 177.1 ± 81.2 nm | – | – | – | – | – | – | – | –
COC(=O)c1ccc(C2=C3C=CC(=N3)C(c3ccccc3)=c3ccc4[n]3[Au+][n]3c(ccc32)C(c2ccccc2)=C2C=CC(=N2)C=4c2ccccc2)cc1.[Cl-] [Compound 3, [Au(TPP–COOCH3)]^+] | – | – | – | – | – | 56% | 49% | – | – | significant damage in the lung, liver and kidney of the mice | damage in normal lung, liver and kidney tissues
